These results are taken from ChEMBL document CHEMBL1629672, “blaCTX-M genes in escherichia coli strains from Croatian Hospitals are located in new (blaCTX-M-3a) and widely spread (blaCTX-M-3a and blaCTX-M-15) genetic structures” (2009).

In brackets after ≈: the same amount, converted by molar mass.

The subject of one assay is Escherichia coli. Kind of assay: Antimicrobial activity against Escherichia coli isolate 32 harboring bla CTX-M-3a gene by broth microdilution method. It is filed as functional.
Conditions: not given
On to `CO[C@@]1(NC(=O)Cc2cccs2)C(=O)N2C(C(=O)O)=C(COC(N)=O)CS[C@@H]21` [CEFOXITIN], for which the MIC amounted to 16 µg/mL (≈ 37.4 µM).
In turn, GENTAMICIN showed an MIC of over 128 µg/mL.
The same measure, in the same setting: to `C[C@@H](O)[C@H]1C(=O)N2C(C(=O)O)=C(S[C@@H]3CN[C@H](C(=O)N(C)C)C3)[C@H](C)[C@H]12` [MEROPENEM] belongs 0.06 µg/mL (≈ 0.156 µM).

In the next assay the test system is Escherichia coli. Kind of assay: Antimicrobial activity against Escherichia coli isolate 36 harboring bla CTX-M-3a gene by broth microdilution method. It is filed as functional.
Conditions: not given
`CO[C@@]1(NC(=O)Cc2cccs2)C(=O)N2C(C(=O)O)=C(COC(N)=O)CS[C@@H]21` [CEFOXITIN] gave an MIC of 8 µg/mL (≈ 18.7 µM).
On the same count and under the same terms, to GENTAMICIN belongs 1 µg/mL; to `C[C@@H](O)[C@H]1C(=O)N2C(C(=O)O)=C(S[C@@H]3CN[C@H](C(=O)N(C)C)C3)[C@H](C)[C@H]12` [MEROPENEM], 0.125 µg/mL (≈ 0.326 µM).

A further assay concerns Escherichia coli. Description: Antimicrobial activity against Escherichia coli isolate 16 harboring bla CTX-M-3a gene by broth microdilution method.
Conditions: not given
It is filed as functional. (Dilution methods test growth across graded concentrations, often in twofold steps.)
For the compound `CO[C@@]1(NC(=O)Cc2cccs2)C(=O)N2C(C(=O)O)=C(COC(N)=O)CS[C@@H]21` [CEFOXITIN], the MIC turned out to be 4 µg/mL (≈ 9.36 µM).
The compound GENTAMICIN gave an MIC of 32 µg/mL.
`C[C@@H](O)[C@H]1C(=O)N2C(C(=O)O)=C(S[C@@H]3CN[C@H](C(=O)N(C)C)C3)[C@H](C)[C@H]12` [MEROPENEM] gave an MIC of 0.06 µg/mL (≈ 0.156 µM).

In a further assay the test system is Escherichia coli. Description: Antimicrobial activity against Escherichia coli isolate 49 harboring bla CTX-M-3a gene by broth microdilution method. It is filed as functional.
Conditions: not given
For `CO[C@@]1(NC(=O)Cc2cccs2)C(=O)N2C(C(=O)O)=C(COC(N)=O)CS[C@@H]21` [CEFOXITIN], the MIC is 2 µg/mL (≈ 4.68 µM).
Same read-out and setting: for GENTAMICIN the value was 0.125 µg/mL; for `C[C@@H](O)[C@H]1C(=O)N2C(C(=O)O)=C(S[C@@H]3CN[C@H](C(=O)N(C)C)C3)[C@H](C)[C@H]12` [MEROPENEM], 0.06 µg/mL (≈ 0.156 µM).

In another assay the test system is Escherichia coli. Kind of assay: microbe, parasite or virus in culture. Particulars: ATCC 25922.
Description: Antimicrobial activity against Escherichia coli ATCC 25922 harboring bla CTX-M-3a gene by broth microdilution method
On to `CO[C@@]1(NC(=O)Cc2cccs2)C(=O)N2C(C(=O)O)=C(COC(N)=O)CS[C@@H]21` [CEFOXITIN], for which the MIC came out at 4 µg/mL (≈ 9.36 µM).
In turn, `C[C@@H](O)[C@H]1C(=O)N2C(C(=O)O)=C(S[C@@H]3CN[C@H](C(=O)N(C)C)C3)[C@H](C)[C@H]12` [MEROPENEM] displayed an MIC of at most 0.03 µg/mL.

For the next assay, the system named is Escherichia coli. Description: Antimicrobial activity against Escherichia coli isolate 100 harboring bla CTX-M-3a gene by broth microdilution method. It is filed as functional.
Conditions: not given
Compound `CO[C@@]1(NC(=O)Cc2cccs2)C(=O)N2C(C(=O)O)=C(COC(N)=O)CS[C@@H]21` [CEFOXITIN] gave an MIC of 8 µg/mL (≈ 18.7 µM).
GENTAMICIN: the MIC was over 128 µg/mL.
`C[C@@H](O)[C@H]1C(=O)N2C(C(=O)O)=C(S[C@@H]3CN[C@H](C(=O)N(C)C)C3)[C@H](C)[C@H]12` [MEROPENEM] yielded an MIC of 0.25 µg/mL (≈ 0.652 µM).

The next assay relates to Escherichia coli. Kind of assay: Antimicrobial activity against Escherichia coli isolate 86 harboring bla CTX-M-3a gene by broth microdilution method. It is filed as functional.
Conditions: not given
The compound `CO[C@@]1(NC(=O)Cc2cccs2)C(=O)N2C(C(=O)O)=C(COC(N)=O)CS[C@@H]21` [CEFOXITIN] returned an MIC of 16 µg/mL (≈ 37.4 µM).
Regarding GENTAMICIN, the MIC was over 128 µg/mL.
With `C[C@@H](O)[C@H]1C(=O)N2C(C(=O)O)=C(S[C@@H]3CN[C@H](C(=O)N(C)C)C3)[C@H](C)[C@H]12` [MEROPENEM], the MIC amounted to 0.06 µg/mL (≈ 0.156 µM).

The subject of a further assay is Escherichia coli. Kind of assay: Antimicrobial activity against Escherichia coli isolate Z1 harboring bla CTX-M-3a gene by broth microdilution method.
Conditions: not given
It is filed as functional.
As for `CO[C@@]1(NC(=O)Cc2cccs2)C(=O)N2C(C(=O)O)=C(COC(N)=O)CS[C@@H]21` [CEFOXITIN], the MIC was found to be 16 µg/mL (≈ 37.4 µM).
The same measure, in the same setting: to GENTAMICIN belongs over 128 µg/mL; to `C[C@@H](O)[C@H]1C(=O)N2C(C(=O)O)=C(S[C@@H]3CN[C@H](C(=O)N(C)C)C3)[C@H](C)[C@H]12` [MEROPENEM], 0.125 µg/mL (≈ 0.326 µM).
